# Reference: patent US20240132559A1, “COMPOSITIONS AND METHODS FOR MODULATING MYC EXPRESSION” (FLAGSHIP PIONEERING INNOVATIONS V, INC., priority 2020, published 2024)
# pIC50: −log10 of the molar value.
# What was measured:
# [1] = test system: A549 cells; experiment: A549 cell viability, ZF9-MQ1 alone and with BET or MEK inhibitors (CellTiter-GLO); type: cell-based, human; details: 72-hour incubation, single agent
# Description: This example evaluates the effect of ZF9-MQ1 construct on A549 cell viability when used in combination with varying concentrations of JQ1 inhibitor.
# A549 cells were seeded at 4,000 cells per well in duplicate plates for cell viability analysis. The 96-well plates were treated in triplicate with GFP or ZF9-MQ1 loaded LNPs at 0.5 ug/mL or 1.0 μg/mL in combination with increasing concentrations of the BET inhibitor JQ1 (concentrations up to 6.25 uM) and incubated. Untreated cells and GFP treated cells were used as controls. After 72-hour incubation, one 96-well plate was lysed with CellTiter-GLO® and luminescence was quantified using the GloMax® Discovery plate reader.
# This example evaluates the effect of ZF9-MQ1 construct on A549 cell viability when used in combination with varying concentrations of BET762 inhibitor.
# (§1) A549 cells were seeded at 4,000 cells per well in duplicate plates for cell viability analysis. The 96-well plates were treated in triplicate with GFP or ZF9-MQ1 loaded LNPs at 0.5 μg/mL or 1.0 μg/mL in combination with increasing concentrations (concentrations up to 1.25 uM) of the BET inhibitor BET762 and incubated. Untreated cells and GFP treated cells were used as controls. After 72-hour incubation, one 96-well plate was lysed with CellTiter-GLO® and luminescence was quantified using the GloMax® Discovery plate reader.
# This example evaluates the effect of ZF9-MQ1 construct on A549 cell viability when used in combination with varying concentrations of BET inhibitor, Birabresib.
# as §1, with “0.625 uM for 0.5 μg/ml ZF9-MQ1 treated cells and up to 0.313 uM for 1.0 μg/ml ZF9-MQ1 treated cells)” for “1.25 uM)”, “Birabresib” for “BET762”
# This example evaluates the effect of ZF9-MQ1 construct on A549 cell viability when used in combination with varying concentrations of MEK inhibitor, Trametinib.
# A549 cells were seeded at 4,000 cells per well in duplicate plates for cell viability analysis. The 96-well plates were treated in triplicate with GFP or ZF9-MQ1 loaded LNPs at 0.5 μg/mL or 1.0 μg/mL in combination with increasing concentrations (concentrations up to 0.05 uM) of the MEK inhibitor Trametinib and incubated. […] After 72-hour incubation, one 96-well plate was lysed with CellTiter-GLO® and luminescence was quantified using the GloMax® Discovery plate reader.
# [2] = test system: A549 cells; experiment: A549 viability with ZF9-MQ1 and small molecule inhibitors, alone and combined; type: cell-based, human; details: each agent separately
# [3] = test system: SK-HEP-1 cells; experiment: JQ1 dose response viability with bi-cistronic ZF9-MQ1_ZF3-KRAB (CellTiter-GLO); type: cell-based; details: Homo sapiens, SK-HEP1, 72 h, SKHEP-1, 72-hour
# Description: (§2) This example evaluates the efficacy of bi-cistronic ZF9-MQ1_ZF3-KRAB in combination with JQ1 (BET inhibitor) in multiple HCC cell lines. […] Later generation BET inhibitors are currently being evaluated in the clinic for hematologic indications; however, their toxicity profile have limited their use. Combination treatments that can increase the potency of BET inhibitors at reduced dose levels could improve BET inhibitor tolerability.
# (§3) To evaluate potential synergy between bi-cistronic ZF9-MQ1_ZF3-KRAB and JQ1, Hep 3B or SK-HEP-1 cells were plated in 96 well plates at 10,000 cells per well. Cells were then treated with JQ1 with a dose range between 0.1 and 25 μM, with serial dilution of 1:2. Lipid mix carrying bi-cistronic ZF9-MQ1_ZF3-KRAB was then added to a set of the wells at a dose of 0.1 or 0.6 μg/mL. A set of cells was treated with JQ1 alone to use as control. Following 72-hour treatment, cells were lysed with the CellTiter-GLO® reagent and luminescence was quantified using the Glo Max. Relative cell viability was calculated by averaging the untreated values and dividing each experimental luciferase value by that average.
# [4] = test system: Hep 3B cells; experiment: as above; type: cell-based; details: Homo sapiens, Hep3B, 72 h
# Description: as §2, §3
# [5] = test system: SKHEP1 and Hep 3B cells; experiment: IC50 of sorafenib or JQ1 in combination with bi-cistronic ZF9-MQ1_ZF3-KRAB; type: cell-based, human; details: with bi-cistronic ZF9-MQ1_ZF3-KRAB at 0.6 and 0.1 ug/ml
# [6] = test system: MYC; experiment: MYC mRNA expression by qPCR in human lung cancer cell lines after LNP transfection; type: cell-based
# Description: Viability was measured using the CellTiter-GLO® assay kit from Promega according to manufacturer's protocol. RNA was isolated from three biological replicates, using the Rneasy® Plus 96-well Kit (Qiagen) following the Manufacturer's protocol. RNA samples were retrotranscribed to cDNA using LunaScript® RT SuperMix Kit (NEB) and analyzed by quantitative PCR (qPCR) (in technical triplicates) using a MYC specific TaqMan™ primer/probe set assay with the TaqMan™ Fast Advanced Master Mix (Thermo Scientific). MYC expression was quantified relative to the expression of GAPDH reference genes using the ΔΔCt method, the untreated and dCas9(no-effector) samples were used as calibrators.
# (§4) Guide RNAs (Table 13) were designed across the lung super-enhancer region and tested in combination with the KRAB repressor protein conjugated to an enzymatically dead CAS9. The effector mRNA and guide RNAs were co-delivered using LNP delivery with SSOP with mRNA delivery of GFP as a negative control. NCSLC cell line A549 were seeded in 96-well plates in growth media (10000 cells/well). LNP formulations (2.5 ug/ml) were then added to the cells to transfect the effector mRNA/guide RNA then incubated for 72 hours. RNA was isolated from three biological replicates, using the Rneasy® Plus 96-well Kit (Qiagen) following the Manufacture's protocol. RNA samples were retrotranscribed to cDNA using LunaScript® RT SuperMix Kit (NEB) and analyzed by quantitative PCR (qPCR) (in technical triplicates) using a MYC specific TaqMan™ primer/probe set assay with the TaqMan™ Fast Advanced Master Mix (Thermo Scientific). MYC expression was quantified relative to the expression of GAPDH reference genes using the ΔΔCt method, the untreated samples were used as calibrators.
# as §4, with “GuideRNAs” for “Guide RNAs”, “MC3” for “SSOP”
# Guide RNAs (GD-29833 and GD-29914) targeted to the MYC super-enhancer were tested in combination with repressor proteins including the histone methyltransferase EZH2 (alone or in conjunction with KRAB) and the DNA methyltransferase MQ1 conjugated to an enzymatically dead CAS9. The effector mRNA and guide RNAs were co-delivered using LNP delivery with SSOP with mRNA delivery of GFP as a negative control. NCSLC cell lines A549 or NCI-H2009 were seeded in 96-well plates in growth media (10000 cells/well). LNP formulations (2.5 ug/ml) were then added to the cells to transfect the effector mRNA/guide RNA then incubated for 72 hours. RNA was isolated from three biological replicates, using the Rneasy® Plus 96-well Kit (Qiagen) following the Manufacture's protocol. RNA samples were retrotranscribed to cDNA using LunaScript® RT SuperMix Kit (NEB) and analyzed by quantitative PCR (qPCR) (in technical triplicates) using a MYC specific TaqMan′ primer/probe set assay with the TaqMan™ Fast Advanced Master Mix (Thermo Scientific). MYC expression was quantified relative to the expression of GAPDH reference genes using the ΔΔCt method, the untreated samples were used as calibrators. […]
# [7] = bi-cistronic ZF9-MQ1_ZF3-KRAB 0 μg/ml
# [8] = bi-cistronic ZF9-MQ1_ZF3-KRAB 0.1 μg/ml
# [9] = bi-cistronic ZF9-MQ1_ZF3-KRAB 0.6 μg/ml
# [10] = A549, guide delivered with KRAB or MQ1, 120 hours
# [11] = A549, guide delivered with dCAS9-KRAB effector mRNA, MC3 LNP 2.5 ug/ml, 72 hours
# [12] = A549, guide delivered with dCAS9-KRAB effector mRNA, SSOP LNP 2.5 ug/ml, 72 hours
# [13] = A549, guide delivered with dCas9 effectors EZH2, EZH2-KRAB and MQ1, 72 hours
# [14] = NCI-H2009, guide delivered with KRAB or MQ1, 120 hours
# [15] = NCI-H2009, guide delivered with dCas9 effectors EZH2, EZH2-KRAB and MQ1, 72 hours
Molecule,"A549 cell viability, each agent separately [1]","inhibition of A549 cell viability, single agent [2]","MYC mRNA down-regulation (in words) [6, 10]","MYC mRNA down-regulation (in words) [6, 11]","MYC mRNA down-regulation (in words) [6, 12]","MYC mRNA down-regulation (in words) [6, 13]","MYC mRNA down-regulation (in words) [6, 14]","MYC mRNA down-regulation (in words) [6, 15]",also measured
CCNC(=O)C[C@@H]1N=C(c2ccc(Cl)cc2)c2cc(OC)ccc2-n2c(C)nnc21 [BET762],inhibited cell viability,inhibited cell viability of A549 cells,,,,,,,
Cc1sc2c(c1C)C(c1ccc(Cl)cc1)=N[C@@H](CC(=O)OC(C)(C)C)c1nnc(C)n1-2 [JQ1],inhibited cell viability,inhibited cell viability of A549 cells,,,,,,,"pIC50 [3, 7]: < 4.60; pIC50 [3, 8]: 5.72; pIC50 [3, 9]: 5.96; pIC50 [4, 7]: 5.18; pIC50 [4, 8]: 6.22; pIC50 [4, 9]: 6.70; IC50 of JQ1 ([5]; Hep 3B): reduced; IC50 of JQ1 ([5]; SKHEP1): reduced"
Cc1sc2c(c1C)C(c1ccc(Cl)cc1)=N[C@@H](CC(=O)Nc1ccc(O)cc1)c1nnc(C)n1-2 [birabresib],inhibited cell viability,inhibited cell viability of A549 cells,,,,,,,
CC(=O)Nc1cccc(-n2c(=O)n(C3CC3)c(=O)c3c(Nc4ccc(I)cc4F)n(C)c(=O)c(C)c32)c1 [trametinib],inhibited cell viability,inhibited cell viability of A549 cells,,,,,,,
"GD-29833: guide RNA to MYC lung super-enhancer, SEQ ID NO: 96 (guide TGCCACTTCCCCACTAACCC; listed as DNA, chemistry not given here; listed as Homo sapiens)",,,significantly downregulate MYC mRNA levels,effectively downregulate MYC mRNA levels,effectively downregulate MYC mRNA levels,effectively downregulate MYC mRNA levels,significantly downregulate MYC mRNA levels,effectively downregulate MYC mRNA levels,
"GD-29914: guide RNA to MYC lung super-enhancer, SEQ ID NO: 108 (guide CAGCACTCTCGCTGACCGCA; listed as DNA, chemistry not given here; listed as Homo sapiens)",,,significantly downregulate MYC mRNA levels,effectively downregulate MYC mRNA levels,effectively downregulate MYC mRNA levels,effectively downregulate MYC mRNA levels,significantly downregulate MYC mRNA levels,effectively downregulate MYC mRNA levels,
